Test results published in PubChem BioAssay AID2060900 (Molecular Pharmacology Branch, DTP, NCI, 2025).
pIC50: −log10 of the molar value.

Tested on: 521955-158-R2-J5-PDC complex spheroids, viability
Assay: Anticancer human tumor 521955-158-R2-J5-PDC patient-derived pancreatic carcinoma cell line growth inhibition [RAS]
Conditions: for pIC50: curve of first compound; for viability, T/C: stronger effect = lower value
In short: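 Agents were tested in combination matrices in half-log decrements from a top concentration at or near clinical Cmax (10 microM if undetermined). Targets were multi-cell spheroids of tumour lines plus HUVEC and MSC stromal cells.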

[1] = second compound 0.000949 µM, first compound 0.000949 µM
[2] = second compound 0.000949 µM, first compound 0.003 µM
[3] = second compound 0.000949 µM, first compound 0.00949 µM
[4] = second compound 0.000949 µM, first compound 0.03 µM
[5] = second compound 0.000949 µM, first compound 0.0949 µM
[6] = second compound 0.000949 µM, first compound 0.3 µM
[7] = second compound 0.003 µM, first compound 0.000949 µM
[8] = second compound 0.003 µM, first compound 0.003 µM
[9] = second compound 0.003 µM, first compound 0.00949 µM
[10] = second compound 0.003 µM, first compound 0.03 µM
[11] = second compound 0.003 µM, first compound 0.0949 µM
[12] = second compound 0.003 µM, first compound 0.3 µM
[13] = second compound 0.00949 µM, first compound 0.000949 µM
[14] = second compound 0.00949 µM, first compound 0.003 µM
[15] = second compound 0.00949 µM, first compound 0.00949 µM
[16] = second compound 0.00949 µM, first compound 0.03 µM
[17] = second compound 0.00949 µM, first compound 0.0949 µM
[18] = second compound 0.00949 µM, first compound 0.3 µM
[19] = second compound 0.03 µM, first compound 0.000949 µM
[20] = second compound 0.03 µM, first compound 0.003 µM
[21] = second compound 0.03 µM, first compound 0.00949 µM
[22] = second compound 0.03 µM, first compound 0.03 µM
[23] = second compound 0.03 µM, first compound 0.0949 µM
[24] = second compound 0.03 µM, first compound 0.3 µM
[25] = second compound 0.0949 µM, first compound 0.000949 µM
[26] = second compound 0.0949 µM, first compound 0.003 µM
[27] = second compound 0.0949 µM, first compound 0.00949 µM
[28] = second compound 0.0949 µM, first compound 0.03 µM
[29] = second compound 0.0949 µM, first compound 0.0949 µM
[30] = second compound 0.0949 µM, first compound 0.3 µM
[31] = second compound 0.3 µM, first compound 0.000949 µM
[32] = second compound 0.3 µM, first compound 0.003 µM
[33] = second compound 0.3 µM, first compound 0.00949 µM
[34] = second compound 0.3 µM, first compound 0.03 µM
[35] = second compound 0.3 µM, first compound 0.0949 µM
[36] = second compound 0.3 µM, first compound 0.3 µM
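Also: compound exposure lasted seven days before the viability read.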
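For viability, T/C in this document: spheroids also contain HUVEC endothelial cells and mesenchymal stem cells as stroma.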

## C=CC(=O)N1CCN(c2nc(OCC3CCCN3C)nc3c(F)c(-c4nc(N)cc(C)c4C(F)(F)F)c(Cl)cc23)C(C)C1 (stereo unspecified) + CCn1c(-c2cccnc2C(C)OC)c2c3cc(ccc31)N1CCOC(CC(NC(=O)C(C(C)C)N(C)C(=O)C3(F)CCN(C(=O)C#CC(C)(C)N(C)C)CC3)C(=O)N3CCCC(N3)C(=O)OCC(C)(C)C2)C1
Second compound 0.000949 µM
  pIC50: < 6.00
Second compound 0.003 µM
  pIC50: < 6.00
Second compound 0.00949 µM
  pIC50: < 6.00
Second compound 0.03 µM
  pIC50: < 6.00
Second compound 0.0949 µM
  pIC50: < 6.00
Second compound 0.3 µM
  pIC50: < 6.00
Second compound 0.000949 µM, first compound 0.00316 µM
  viability, T/C: 100%
Second compound 0.000949 µM, first compound 0.01 µM
  viability, T/C: 104%
Second compound 0.000949 µM, first compound 0.0316 µM
  viability, T/C: 104%
Second compound 0.000949 µM, first compound 0.1 µM
  viability, T/C: 103%
Second compound 0.000949 µM, first compound 0.316 µM
  viability, T/C: 99.1%
Second compound 0.000949 µM, first compound 1 µM
  viability, T/C: 92.7%
Second compound 0.003 µM, first compound 0.00316 µM
  viability, T/C: 93.2%
Second compound 0.003 µM, first compound 0.01 µM
  viability, T/C: 88.3%
Second compound 0.003 µM, first compound 0.0316 µM
  viability, T/C: 107%
Second compound 0.003 µM, first compound 0.1 µM
  viability, T/C: 113%
Second compound 0.003 µM, first compound 0.316 µM
  viability, T/C: 86.5%
Second compound 0.003 µM, first compound 1 µM
  viability, T/C: 94.7%
Second compound 0.00949 µM, first compound 0.00316 µM
  viability, T/C: 97.7%
Second compound 0.00949 µM, first compound 0.01 µM
  viability, T/C: 111%
Second compound 0.00949 µM, first compound 0.0316 µM
  viability, T/C: 109%
Second compound 0.00949 µM, first compound 0.1 µM
  viability, T/C: 115%
Second compound 0.00949 µM, first compound 0.316 µM
  viability, T/C: 97.9%
Second compound 0.00949 µM, first compound 1 µM
  viability, T/C: 97.7%
Second compound 0.03 µM, first compound 0.00316 µM
  viability, T/C: 99.3%
Second compound 0.03 µM, first compound 0.01 µM
  viability, T/C: 92.8%
Second compound 0.03 µM, first compound 0.0316 µM
  viability, T/C: 97.7%
Second compound 0.03 µM, first compound 0.1 µM
  viability, T/C: 95.8%
Second compound 0.03 µM, first compound 0.316 µM
  viability, T/C: 95.2%
Second compound 0.03 µM, first compound 1 µM
  viability, T/C: 91.9%
Second compound 0.0949 µM, first compound 0.00316 µM
  viability, T/C: 88.5%
Second compound 0.0949 µM, first compound 0.01 µM
  viability, T/C: 86.8%
Second compound 0.0949 µM, first compound 0.0316 µM
  viability, T/C: 104%
Second compound 0.0949 µM, first compound 0.1 µM
  viability, T/C: 96.4%
Second compound 0.0949 µM, first compound 0.316 µM
  viability, T/C: 98.1%
Second compound 0.0949 µM, first compound 1 µM
  viability, T/C: 74.4%
Second compound 0.3 µM, first compound 0.00316 µM
  viability, T/C: 80%
Second compound 0.3 µM, first compound 0.01 µM
  viability, T/C: 78.2%
Second compound 0.3 µM, first compound 0.0316 µM
  viability, T/C: 90.1%
Second compound 0.3 µM, first compound 0.1 µM
  viability, T/C: 69.1%
Second compound 0.3 µM, first compound 0.316 µM
  viability, T/C: 89.4%
Second compound 0.3 µM, first compound 1 µM
  viability, T/C: 79.7%

## CC1(C)CCC(Nc2ncc(C(F)(F)F)c(-c3c[nH]c4c(P(C)(C)=O)c(C#N)ccc34)n2)CN1 (stereo unspecified) + CCn1c(-c2cccnc2C(C)OC)c2c3cc(ccc31)N1CCOC(CC(NC(=O)C(C(C)C)N(C)C(=O)C3(F)CCN(C(=O)C#CC(C)(C)N(C)C)CC3)C(=O)N3CCCC(N3)C(=O)OCC(C)(C)C2)C1
Second compound 0.000949 µM
  pIC50: 8.11
Second compound 0.003 µM
  pIC50: 8.06
Second compound 0.00949 µM
  pIC50: 8.07
Second compound 0.03 µM
  pIC50: 8.17
Second compound 0.0949 µM
  pIC50: 8.14
Second compound 0.3 µM
  pIC50: 8.24
[1]
  viability, T/C: 88.5%
[2]
  viability, T/C: 60.9%
[3]
  viability, T/C: 50.1%
[4]
  viability, T/C: 39.2%
[5]
  viability, T/C: 40.7%
[6]
  viability, T/C: 43%
[7]
  viability, T/C: 106%
[8]
  viability, T/C: 65.2%
[9]
  viability, T/C: 49.9%
[10]
  viability, T/C: 44%
[11]
  viability, T/C: 39.7%
[12]
  viability, T/C: 45.7%
[13]
  viability, T/C: 83.2%
[14]
  viability, T/C: 62.5%
[15]
  viability, T/C: 52%
[16]
  viability, T/C: 36.2%
[17]
  viability, T/C: 42.5%
[18]
  viability, T/C: 54.1%
[19]
  viability, T/C: 90.5%
[20]
  viability, T/C: 68.7%
[21]
  viability, T/C: 40.9%
[22]
  viability, T/C: 38.4%
[23]
  viability, T/C: 41.8%
[24]
  viability, T/C: 48.4%
[25]
  viability, T/C: 80.8%
[26]
  viability, T/C: 66.2%
[27]
  viability, T/C: 45.4%
[28]
  viability, T/C: 38.9%
[29]
  viability, T/C: 40%
[30]
  viability, T/C: 39%
[31]
  viability, T/C: 68.2%
[32]
  viability, T/C: 65.1%
[33]
  viability, T/C: 38.7%
[34]
  viability, T/C: 34.2%
[35]
  viability, T/C: 38.2%
[36]
  viability, T/C: 40.1%

## CCc1c2c(nc3ccc(O)cc13)-c1cc3c(c(=O)n1C2)COC(=O)[C@]3(O)CC + CCn1c(-c2cccnc2C(C)OC)c2c3cc(ccc31)N1CCOC(CC(NC(=O)C(C(C)C)N(C)C(=O)C3(F)CCN(C(=O)C#CC(C)(C)N(C)C)CC3)C(=O)N3CCCC(N3)C(=O)OCC(C)(C)C2)C1
Second compound 0.000949 µM
  pIC50: 8.65
Second compound 0.003 µM
  pIC50: 8.62
Second compound 0.00949 µM
  pIC50: 8.60
Second compound 0.03 µM
  pIC50: 8.60
Second compound 0.0949 µM
  pIC50: 8.58
Second compound 0.3 µM
  pIC50: 8.77
[1]
  viability, T/C: 97.8%
[2]
  viability, T/C: 34.1%
[3]
  viability, T/C: 12.3%
[4]
  viability, T/C: 5.82%
[5]
  viability, T/C: 6.17%
[6]
  viability, T/C: 6.87%
[7]
  viability, T/C: 92.6%
[8]
  viability, T/C: 39.6%
[9]
  viability, T/C: 16.9%
[10]
  viability, T/C: 5.84%
[11]
  viability, T/C: 4.8%
[12]
  viability, T/C: 7.45%
[13]
  viability, T/C: 104%
[14]
  viability, T/C: 40.5%
[15]
  viability, T/C: 14.4%
[16]
  viability, T/C: 8.96%
[17]
  viability, T/C: 6.33%
[18]
  viability, T/C: 7.48%
[19]
  viability, T/C: 72.7%
[20]
  viability, T/C: 46.1%
[21]
  viability, T/C: 11.3%
[22]
  viability, T/C: 10%
[23]
  viability, T/C: 5.57%
[24]
  viability, T/C: 7.99%
[25]
  viability, T/C: 101%
[26]
  viability, T/C: 43.5%
[27]
  viability, T/C: 12.7%
[28]
  viability, T/C: 4.87%
[29]
  viability, T/C: 7.25%
[30]
  viability, T/C: 6.81%
[31]
  viability, T/C: 66%
[32]
  viability, T/C: 34.3%
[33]
  viability, T/C: 10%
[34]
  viability, T/C: 5.73%
[35]
  viability, T/C: 6.03%
[36]
  viability, T/C: 4.48%
